Experimental findings from US12371428B2 (Exelixis, Inc., priority 2019, dated 2025) are described below.

Test [1] has as its target Human MET (residues 956-1390) (Homo sapiens (Human), UniProt P08581). Description: Human Met kinase assay, HTRF KinEase (Example D-2). Format: biochemical. The note with it: protocol of Example D-2; read-out: c-Met IC50. The method, boiled down: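 MET kinase domain (956-1390), 0.1 ng/well, in buffer with 5 mM MgCl2, 1 mM DTT and 1 mM MnCl2, phosphorylated a biotinylated peptide at ATP Km for 40 min at RT; 10 concentrations, 3% DMSO final. EDTA-stopped HTRF read after 60 min; IC50 from a 4-parameter logistic fit.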
In general terms: Time-resolved FRET reads energy transfer from a long-lived donor to a nearby acceptor.

For test [2], the target named is KDR (phospho-KDR, VEGF165-stimulated HUVEC cells) (Homo sapiens (Human), UniProt P35968). Description: KDR autophosphorylation ELISA in HUVEC cells (Example G). Particulars: cellular activity; KDR autophosphorylation ELISA in HUVEC cells. Format: cell-based. Summed up: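 Read-out is phospho-KDR measured by ELISA in lysates of VEGF165-stimulated (100 ng/mL, 5 min) HUVEC that were serum-starved 24 h and then pre-exposed 1 h to compound across 8 doses in 0.3% DMSO. Unstimulated lysates defined 0% and stimulated vehicle lysates 100% activity; IC50 values come from 4-parameter logistic regression.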
Chain of KDR (phospho-KDR, VEGF165-stimulated HUVEC cells) (P35968 20-1356): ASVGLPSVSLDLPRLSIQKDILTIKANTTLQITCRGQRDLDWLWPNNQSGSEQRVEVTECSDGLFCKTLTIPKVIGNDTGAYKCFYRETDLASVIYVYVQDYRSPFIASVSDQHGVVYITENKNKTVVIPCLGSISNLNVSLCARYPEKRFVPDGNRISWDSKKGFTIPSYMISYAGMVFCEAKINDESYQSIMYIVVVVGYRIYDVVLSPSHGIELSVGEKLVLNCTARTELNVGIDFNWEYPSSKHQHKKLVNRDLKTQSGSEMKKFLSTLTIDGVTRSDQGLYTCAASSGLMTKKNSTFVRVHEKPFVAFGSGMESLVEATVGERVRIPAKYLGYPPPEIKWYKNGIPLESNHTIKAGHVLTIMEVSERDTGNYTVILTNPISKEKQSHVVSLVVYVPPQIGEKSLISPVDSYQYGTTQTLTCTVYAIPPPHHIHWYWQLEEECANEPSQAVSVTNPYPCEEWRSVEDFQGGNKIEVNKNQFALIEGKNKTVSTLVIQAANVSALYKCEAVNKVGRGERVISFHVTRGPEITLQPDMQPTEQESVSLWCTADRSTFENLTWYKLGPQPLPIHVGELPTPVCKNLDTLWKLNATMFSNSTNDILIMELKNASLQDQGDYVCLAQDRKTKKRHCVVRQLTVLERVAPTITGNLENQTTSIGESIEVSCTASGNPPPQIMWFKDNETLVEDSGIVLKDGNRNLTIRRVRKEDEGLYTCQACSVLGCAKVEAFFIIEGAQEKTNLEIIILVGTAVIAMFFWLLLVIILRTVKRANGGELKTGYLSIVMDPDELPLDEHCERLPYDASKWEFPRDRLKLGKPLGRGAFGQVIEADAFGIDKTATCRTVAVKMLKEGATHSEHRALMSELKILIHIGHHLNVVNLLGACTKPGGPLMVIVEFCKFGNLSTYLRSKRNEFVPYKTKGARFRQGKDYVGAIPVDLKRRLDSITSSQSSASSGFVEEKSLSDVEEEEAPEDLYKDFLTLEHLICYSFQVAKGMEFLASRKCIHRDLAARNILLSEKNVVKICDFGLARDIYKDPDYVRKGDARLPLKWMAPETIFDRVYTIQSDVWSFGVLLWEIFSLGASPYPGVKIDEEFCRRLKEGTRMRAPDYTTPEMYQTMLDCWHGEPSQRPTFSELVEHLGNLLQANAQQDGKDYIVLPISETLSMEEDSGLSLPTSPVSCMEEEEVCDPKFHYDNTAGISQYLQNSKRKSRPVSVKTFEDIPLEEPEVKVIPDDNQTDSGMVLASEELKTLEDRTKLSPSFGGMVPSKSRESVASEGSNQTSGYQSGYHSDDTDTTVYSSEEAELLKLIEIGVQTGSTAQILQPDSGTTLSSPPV

The target of test [3] is Human MER (residues 528-999) (Homo sapiens (Human), UniProt Q12866). Description: Human Mer kinase assay, HTRF KinEase (Example C-2). Format: biochemical. Particulars: protocol of Example C-2. Summed up:
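Recombinant MER 528-999 (1 ng/well) in buffer with 5 mM MgCl2 and 1 mM DTT was reacted with biotinylated peptide and ATP at Km (40 μM) for 60 min at room temperature. EDTA stop with SA-XL665 and Eu3+ TK antibody, then 665/620 nm HTRF read; IC50 from 4-parameter fit.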

The target in test [4] is Mer (phospho-Mer, MERTK-transfected 293A cells) (Homo sapiens (Human), UniProt Q12866). Description: Mer autophosphorylation ELISA in transient transfected 293A cells (Example H). Format: cell-based. The note with it: cellular activity; Mer autophosphorylation ELISA in transient transfected 293A cells. Summed up:
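IC50 from phospho-Mer ELISA of MERTK-transfected 293A cell lysates after 1 h treatment with serially diluted compound in serum-free medium.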
On the technique in general: ELISA stands for enzyme-linked immunosorbent assay.

Chain of Human MET (residues 956-1390) (P08581 956-1390): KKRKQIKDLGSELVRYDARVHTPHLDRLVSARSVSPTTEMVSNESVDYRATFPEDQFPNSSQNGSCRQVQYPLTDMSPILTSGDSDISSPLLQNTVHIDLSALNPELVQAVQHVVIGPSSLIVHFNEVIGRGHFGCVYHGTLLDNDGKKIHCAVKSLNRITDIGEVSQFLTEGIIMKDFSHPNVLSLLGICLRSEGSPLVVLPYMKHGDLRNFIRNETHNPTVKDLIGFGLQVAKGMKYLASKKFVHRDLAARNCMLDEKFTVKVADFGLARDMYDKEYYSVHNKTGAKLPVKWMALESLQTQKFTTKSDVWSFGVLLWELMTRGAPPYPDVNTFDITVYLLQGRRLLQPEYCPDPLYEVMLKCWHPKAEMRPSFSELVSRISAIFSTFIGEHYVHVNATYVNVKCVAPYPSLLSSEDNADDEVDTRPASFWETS
Chain of Mer (phospho-Mer, MERTK-transfected 293A cells) (Q12866 21-999): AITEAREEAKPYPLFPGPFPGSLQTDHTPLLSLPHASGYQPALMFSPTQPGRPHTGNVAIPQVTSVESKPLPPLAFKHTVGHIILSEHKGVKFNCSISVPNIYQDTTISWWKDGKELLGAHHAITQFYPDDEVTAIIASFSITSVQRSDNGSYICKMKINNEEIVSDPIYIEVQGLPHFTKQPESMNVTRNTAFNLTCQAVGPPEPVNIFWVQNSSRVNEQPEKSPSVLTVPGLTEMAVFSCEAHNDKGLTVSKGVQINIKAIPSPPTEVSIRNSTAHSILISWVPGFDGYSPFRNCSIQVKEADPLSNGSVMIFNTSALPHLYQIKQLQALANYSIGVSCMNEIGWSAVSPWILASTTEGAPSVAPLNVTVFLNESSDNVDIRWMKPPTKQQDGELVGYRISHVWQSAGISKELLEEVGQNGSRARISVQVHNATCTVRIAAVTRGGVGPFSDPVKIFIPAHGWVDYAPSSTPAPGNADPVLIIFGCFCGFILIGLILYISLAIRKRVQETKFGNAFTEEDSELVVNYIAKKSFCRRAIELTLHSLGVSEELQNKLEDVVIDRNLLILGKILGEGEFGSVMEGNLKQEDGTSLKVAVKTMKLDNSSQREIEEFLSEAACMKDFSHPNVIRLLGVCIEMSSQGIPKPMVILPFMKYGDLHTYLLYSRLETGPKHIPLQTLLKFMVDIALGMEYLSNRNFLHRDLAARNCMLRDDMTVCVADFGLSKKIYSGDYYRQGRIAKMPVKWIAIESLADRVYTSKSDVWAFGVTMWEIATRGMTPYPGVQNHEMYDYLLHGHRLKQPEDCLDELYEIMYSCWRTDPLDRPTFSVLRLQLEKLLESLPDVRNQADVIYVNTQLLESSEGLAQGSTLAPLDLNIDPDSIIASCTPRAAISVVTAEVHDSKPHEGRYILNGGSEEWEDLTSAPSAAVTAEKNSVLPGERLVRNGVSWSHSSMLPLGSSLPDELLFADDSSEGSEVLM
Chain of Human MER (residues 528-999) (Q12866 528-999): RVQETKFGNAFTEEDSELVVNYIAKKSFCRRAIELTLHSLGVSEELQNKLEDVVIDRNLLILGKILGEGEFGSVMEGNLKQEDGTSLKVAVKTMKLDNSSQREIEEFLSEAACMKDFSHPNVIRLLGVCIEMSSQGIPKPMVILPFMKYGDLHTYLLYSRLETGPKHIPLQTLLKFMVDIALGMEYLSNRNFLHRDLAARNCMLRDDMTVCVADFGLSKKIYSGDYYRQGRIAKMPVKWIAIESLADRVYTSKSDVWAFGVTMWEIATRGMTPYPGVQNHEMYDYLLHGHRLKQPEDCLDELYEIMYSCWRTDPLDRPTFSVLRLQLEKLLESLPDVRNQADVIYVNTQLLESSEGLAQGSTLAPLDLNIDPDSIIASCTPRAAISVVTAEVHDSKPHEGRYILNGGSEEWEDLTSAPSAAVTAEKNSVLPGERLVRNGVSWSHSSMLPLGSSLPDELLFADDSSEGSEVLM

Take `COc1cc2nccc(Oc3cc(F)c(NC(=O)c4cnc(C)c(-c5ccc(F)cc5)c4O)cc3F)c2nc1C` [Compound 542, N-[2,5-difluoro-4-[(7-methoxy-6-methyl-1,5-naphthyridin-4-yl)oxy]phenyl]-5-(4-fluorophenyl)-4-hydroxy-6-methylpyridine-3-carboxamide]: the IC50 in test [1], in test [2], in test [3] and in test [4] was < 0.1 µM each time.

On to `CNc1nccc2c(Oc3ccc(NC(=O)c4cnc(C)n(-c5ccc(F)cc5)c4=O)cc3)ccnc12` [Compound 543, 1-(4-fluorophenyl)-2-methyl-N-[4-[[8-(methylamino)-1,7-naphthyridin-4-yl)oxy]phenyl]-6-oxopyrimidine-5-carboxamide], for which the IC50 – broadly, the concentration that gives 50% inhibition – in test [1] is 0.1 to 0.3 µM; in test [2], 0.1 to 0.3 µM; in test [3], < 0.1 µM; in test [4], < 0.1 µM.

For the molecule `COc1cc2nccc(Oc3ccc(NC(=O)c4cnc(COC(C)=O)c(-c5ccc(F)cc5)c4O)cc3F)c2nc1OC` [Compound 544, [5-[[4-[(6,7-dimethoxy-1,5-naphthyridin-4-yl)oxy]-3-fluorophenyl]carbamoyl]-3-(4-fluorophenyl)-4-hydroxypyridin-2-yl]methyl acetate], the IC50 in test [1], in test [2], in test [3] and in test [4] was < 0.1 µM each time.

Regarding `Cc1ccc(C(=O)Nc2ccc(Oc3ccnc4cc(O)cnc34)c(F)c2)c(=O)n1-c1ccc(F)cc1` [Compound 551, N-[3-Fluoro-4-[(7-hydroxy-1,5-naphthyridin-4-yl)oxy]phenyl]-1-(4-fluorophenyl)-6-methyl-2-oxopyridine-3-carboxamide], the IC50 in test [1], in test [2], in test [3] and in test [4] was < 0.1 µM throughout.

`COCCOc1cnc2c(Oc3ccc(NC(=O)c4ccc(C)n(-c5ccc(F)cc5)c4=O)cc3F)ccnc2c1` [Compound 552, N-[3-Fluoro-4-[[7-(2-methoxyethoxy)-1,5-naphthyridin-4-yl]oxy]phenyl]-1-(4-fluorophenyl)-6-methyl-2-oxopyridine-3-carboxamide]: the concentration for half-maximal inhibition (IC50) in test [1], in test [2], in test [3] and in test [4] was < 0.1 µM throughout.

`COc1cc2nccc(Oc3ccc(NC(=O)c4cn(C)c(C(=O)O)c(-c5ccc(F)cc5)c4=O)cc3F)c2nc1OC` [Compound 553, 5-[[4-[(6,7-Dimethoxy-1,5-naphthyridin-4-yl)oxy]-3-fluorophenyl]carbamoyl]-3-(4-fluorophenyl)-1-methyl-4-oxopyridine-2-carboxylic acid]: the IC50 in test [1] was < 0.1 µM; in test [2] it was > 0.3 µM; in test [3] it was < 0.1 µM; in test [4], 0.1 to 0.3 µM.

In the case of `Cc1nc(C)c(-c2ccc(F)cc2)c(O)c1C(=O)Nc1ccc(Oc2ccnc3cc(O)cnc23)c(F)c1` [Compound 554, N-[3-Fluoro-4-[(7-hydroxy-1,5-naphthyridin-4-yl)oxy]phenyl]-5-(4-fluorophenyl)-4-hydroxy-2,6-dimethylpyridine-3-carboxamide], the IC50 in test [1], in test [2], in test [3] and in test [4] was < 0.1 µM throughout.

On to `COCCOc1cnc2c(Oc3ccc(NC(=O)c4c(C)nc(C)c(-c5ccc(F)cc5)c4O)cc3F)ccnc2c1` [Compound 555, N-[3-Fluoro-4-[[7-(2-methoxyethoxy)-1,5-naphthyridin-4-yl]oxy]phenyl]-5-(4-fluorophenyl)-4-hydroxy-2,6-dimethylpyridine-3-carboxamide], for which the half-inhibitory concentration (IC50) in test [1], in test [2], in test [3] and in test [4] was < 0.1 µM throughout.
